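Test compounds were applied to cells in 96-well plates for 48 hours at 5 doses. At the GI50, growth is halved. TGI denotes the concentration required for complete inhibition of growth.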
Assays:
Experiment in all cases: growth of human tumour cells (NCI), 48 h
HCC-2998 colon = test system: HCC-2998 colon
HOP-18 NSCLC = test system: HOP-18 NSCLC
DMS 114 small cell lung = test system: DMS 114 small cell lung
DMS 273 small cell lung = test system: DMS 273 small cell lung
LXFL 529 NSCLC = test system: LXFL 529 NSCLC
KM20L2 colon = test system: KM20L2 colon
M19-MEL melanoma = test system: M19-MEL melanoma
XF 498 CNS = test system: XF 498 CNS
SNB-78 CNS = test system: SNB-78 CNS
DLD-1 colon = test system: DLD-1 colon

CCCCCCCCc1ccc(CCC(N)(CO)CO)cc1
GI50 (HCC-2998 colon): 1.57 µM
TGI (HCC-2998 colon): 2.96 µM

NC(=S)N/N=C1\CC(c2ccccc2)Nc2ccccc21 (stereo unspecified)
TGI (HOP-18 NSCLC): > 100 µM
TGI (DMS 114 small cell lung): 63.4 µM
TGI (DMS 273 small cell lung): > 100 µM
TGI (LXFL 529 NSCLC): > 100 µM
TGI (KM20L2 colon): 47.2 µM
TGI (M19-MEL melanoma): > 100 µM
TGI (XF 498 CNS): 35.2 µM
TGI (SNB-78 CNS): > 100 µM
TGI (DLD-1 colon): > 100 µM

C[N+]1(c2ccccc2)C=C(c2ccccc2)SC1=S (stereo unspecified)
TGI (HCC-2998 colon): > 100 µM

CC1(Cc2cc3c(cc2C2(c4ccc([N+](=O)[O-])cc4)OCCO2)OCO3)OCCO1
TGI (HCC-2998 colon): > 100 µM

CCOc1ccc(N=Nc2ccc(-c3ccc(N=Nc4c(O)ccc5cc(S(=O)(=O)O)cc(S(=O)(=O)O)c45)cc3)cc2)cc1
TGI (HCC-2998 colon): > 100 µM

Cc1ccccc1C1CC(=O)CC(c2ccccc2C)C12C(=O)NC(=S)NC2=O (stereo unspecified)
TGI (HCC-2998 colon): 25.2 µM

Cc1cccc(/C=C2/C(=O)Nc3ccccc32)n1
TGI (HCC-2998 colon): 22.4 µM

C=C(C[C@@H](O)[C@H](C)NC(=O)OCc1ccccc1)C(=O)OC(C)(C)C
TGI (HCC-2998 colon): > 100 µM

CC(=O)c1c(C)cc2cccc(OC3OC(CO)C(O)C(O)C3O)c2c1O (stereo unspecified) (tested in a mixture with another compound)
TGI (HCC-2998 colon): > 100 µM

CC(=O)C(N=NC1CCC(S(=O)(=O)NB2N=CS2)CC1)C(=O)Nc1ccccc1C (stereo unspecified)
TGI (HOP-18 NSCLC): 80 µM
TGI (DMS 114 small cell lung): 26.3 µM
TGI (DMS 273 small cell lung): 48 µM
TGI (LXFL 529 NSCLC): 27.6 µM
TGI (KM20L2 colon): 29.6 µM
TGI (M19-MEL melanoma): 34.1 µM
TGI (XF 498 CNS): 33.6 µM
TGI (HCC-2998 colon): 31.4 µM
TGI (SNB-78 CNS): 67.1 µM
TGI (DLD-1 colon): 35.4 µM

O=S(=O)([O-])[O-].[Fe+2].[OH2+]c1c(Cl)cc(Cl)cc1/C=N/Nc1ccccn1
GI50 (HOP-18 NSCLC): 0.55 µM
TGI (HOP-18 NSCLC): 1.93 µM
TGI (DMS 114 small cell lung): 0.595 µM
TGI (LXFL 529 NSCLC): 1.39 µM
TGI (KM20L2 colon): 3.66 µM
TGI (M19-MEL melanoma): 4.86 µM
TGI (HCC-2998 colon): 5.13 µM
TGI (DLD-1 colon): 1.8 µM

— PubChem BioAssay (NCI)
